Data reported in patent publication US20260297031A1, “HYDROXYLAMINE-BASED BCR-ABL1 INHIBITORS FOR TREATMENT OF CANCER” (University of Georgia Research Foundation, Inc., priority 2023, published 2026).

Legend:
BCR-ABL1 Q252H = molecular target: T1, BCR-ABL1 Q252H (Homo sapiens, UniProt P00519, Q252H); experiment: KinaseProfiler radiometric kinase assay, BCR-ABL1 Q252H; assay type: biochemical; settings: [ATP] = 10 μM; mean of n = 2
T1 construct: BCR (fusion partner, as the printed name BCR-ABL1 says)

[1] = Plasma protein binding by equilibrium dialysis, human plasma; assay type: in vitro ADME; settings: for % Unbound: human plasma, 360 min, 5 µM
Protocol: Plasma Protein Binding by Equilibrium Dialysis (Independently Performed by Pharmaron Inc., Ninqbo, CN)
Initially, 1 mM solutions of test compounds and the control compound (Ketoconzaole) were prepared in DMSO. After this, dialysis membranes were soaked in ultrapure water for 60 min to separate strips, followed by 20% aq. ethanol for 20 min, and finally in a dialysis buffer for 20 min. […] After this, 597 μL of blank plasma solution followed by 3 μL of the working solutions of either test compounds or control compound were added to a new plastic plate or separate plastic tube and the solutions were vortexed at 1,000 rpm for 2 min. Immediately after this, 50 μL of spiked plasma solution suspension was transferred to a 96-well plate to act as T=0 control. The remaining samples were treated in the same manner, whereby all remaining spiked plasma solutions were added to the incubator for the duration of the study.
Cells were then loaded with 120 μL of the plasma samples and dialyzed against an equal volume of dialysis buffer (PBS). […] At the end of incubation, the lid was removed and 50 μL of post-dialysis samples were removed from both buffer and plasma solution chambers into a separate 96-well plate for analysis. The plasma solutions (50 μL) were then added to the buffer samples along with an equal volume of PBS (50 μL) to the collected plasma solution samples. The plate was shaken at 1,000 rpm for 2 min and 400 μL of acetonitrile containing an appropriate internal standard was added to precipitate protein and release compound. The samples were then vortexed at 1,000 rpm for an additional 10 min followed by centrifugation at 3,220 g for 30 min. Supernatant (250 μL) was then added to a new 96-well plate and centrifuged again at 3,220 g for 30 min and 100 μL of this supernatant was then added to a new 96-well plate for analysis. The samples were analyzed by LC-MS/MS and 100 μL of distilled water was added to each sample prior to analysis.
Concentrations of test compounds and control compound in buffer and plasma solution chambers was determined and percentages of test compounds and control compound bound using the following equations (mean of n=2 replicates): […]

[2] = Metabolic stability in human hepatocytes
Protocol: Metabolic Stability in Hepatocytes (Independently Performed by Pharmaron Inc., Ninqbo, CN)
After thawing was complete, hepatocytes were transferred into a 50 mL conical tube containing thawing medium and the tube was then placed into a centrifuge and spun at 100 g for 10 min. […] Using AO/PI staining, cells were counted to determine the viable cell density. […] Subsequently, 2 μL of the 100 μM test compounds or control compound solutions was transferred into the respective wells of the 96-well non-coated plate to start the reaction. […] Aliquots of 100 μL of the supernatant were then diluted by 100 μL of ultra-pure water, and the mixture was analyzed by LC-MS/MS.
All calculations were carried out using Microsoft Excel. Peak areas were determined from extracted ion chromatograms. The in-vitro half-life (t1/2) of parent compound was determined by regression of the percent parent disappearance vs. time curve.

MDCKII-MDR1 cells = experiment: MDCKII-MDR1 permeability
Protocol: MDCKII-MDR1 Permeability (Independently Performed By: Pharmaron Inc., Ninqbo, CN)
To each well of the Transwell insert and reservoir were added 50 μL and 25 mL of cell culture medium, respectively.
To determine the rate of drug transport in the apical to basolateral direction, 125 μL of the working solution of either test compounds or control compounds was added to the Transwell insert (apical compartment) and a 50 μL sample was immediately transferred from the apical compartment to 200 μL of acetonitrile containing internal standard (100 nM alprazolam, 200 nM caffeine, and 100 nM tolbutamide) in a new 96-well plate as the initial donor sample (A-B). The sample was then vortexed at 1,000 rpm for 10 min. The receiver plate (basolateral compartment) wells were then filled with 235 μL transport buffer. To determine the rate of drug transport in the basolateral to apical direction, 285 μL of the working solution of either test compounds or control compounds was added to the receiver plate (basolateral compartment) wells and a 50 μL of sample was immediately transferred from the basolateral compartment to 200 μL of acetonitrile containing internal standard in a new 96-well plate as the initial donor sample (B-A). The sample was vortexed for 10 min at 1,000 rpm. The Transwell insert (apical compartment) was then filled with 75 μL of transport buffer and the apical to basolateral direction and the basolateral to apical direction were done at the same time. […] After incubation, 50 μL samples from donor sides (apical compartment for Ap→BI flux, and basolateral compartment BI→Ap) and receiver sides (basolateral compartment for Ap→BI flux, and apical compartment for BI→Ap) were transferred to wells of a new 96-well plate, followed by the addition of 200 μL acetonitrile containing internal standard. […] An aliquot of 100 μL of the supernatant was mixed with an appropriate volume of ultra-pure water before LC-MS/MS analysis.
To monitor for monolayer integrity, Lucifer yellow leakage was determined after the 2 h transport period. This began by preparing a stock solution of Lucifer yellow in DMSO and diluted with HBSS (10 mM HEPES, pH 7.4.) to reach a final concentration of 100 μM. To each Transwell insert (apical compartment) was then added 100 μL of the Lucifer yellow solution, followed by filling the wells in the receiver plate (basolateral compartment) with 300 μL of HBSS (10 mM HEPES, pH 7.4).
The efflux ratio was determined using the following equation: […]

Question: With `COc1cc(Nc2c(C#N)cnc3cc(OCCON4CCN(C)CC4)c(OC)cc23)c(F)cc1Cl` [Compound 15, 4-((4-chloro-2-fluoro-5-methoxyphenyl)amino)-6-methoxy-7-(2-((4-methylpiperazin-1-yl)oxy)ethoxy)quinoline-3-carbonitrile] as the molecule, how does the IC50 (BCR-ABL1 Q252H) read?
Answer: 0.002 µM

Question: And the “% Unbound” value [1]?
Answer: 5.58%

Question: What about the fraction unbound at 6 h, 5 µM ([1]; plasma, human, 5 μM, read-out: fu, plasma %) of the same molecule?
Answer: 0.056

Question: What about the remaining at 0.5 min ([2]; hepatocytes) of the same molecule?
Answer: 100%

Question: What about the remaining at 0.5 h ([2]; hepatocytes) of the same molecule?
Answer: 52.5%

Question: And the remaining at 1 h ([2]; hepatocytes)?
Answer: 29.4%

Question: What about the remaining at 2 h ([2]; hepatocytes) of the same molecule?
Answer: 9.48%

Question: And the t1/2 ([2]; hepatocytes)?
Answer: 34.2 min

Question: And the “efflux (P-gp), in words” value (MDCKII-MDR1 cells; MDCKII-MDR1)?
Answer: no further improvement in drug efflux was seen

Question: Which IC50 (BCR-ABL1 Q252H) does the source give for `COc1cc2c(Nc3cccc(OC)c3Cl)c(C#N)cnc2cc1OCCON1CCN(C)CC1` [Compound 17, 4-((2-Chloro-3-methoxyphenyl)amino)-6-methoxy-7-(2-((4-methylpiperazin-1-yl)oxy)ethoxy)quinoline-3-carbonitrile] here?
Answer: 0.037 µM

Question: What about the “% Unbound” value [1] of the same molecule?
Answer: 7.37%

Question: What about the “stability in hepatocytes, in words” value [2] of the same molecule?
Answer: good stability in human hepatocytes

Question: What about the remaining at 0.5 min ([2]; hepatocytes) of the same molecule?
Answer: 100%

Question: What about the remaining at 0.5 h ([2]; hepatocytes) of the same molecule?
Answer: 80.6%

Question: And the remaining at 1 h ([2]; hepatocytes)?
Answer: 60.5%

Question: What about the remaining at 2 h ([2]; hepatocytes) of the same molecule?
Answer: 35.8%

Question: What about the “efflux (P-gp), in words” value (MDCKII-MDR1 cells; MDCKII-MDR1) of the same molecule?
Answer: greatly reduced efflux ratio

Question: What about the “fold enhancement in permeability” value (MDCKII-MDR1 cells; MDCKII-MDR1, relative to bosutinib) of the same molecule?
Answer: 31 -fold

Question: With `COc1cc(Cl)ccc1Nc1c(C#N)cnc2cc(OCCON3CCN(C)CC3)c(OC)cc12` [Compound 20, 4-((4-Chloro-2-methoxyphenyl)amino)-6-methoxy-7-(2-((4-methylpiperazin-1-yl)oxy)ethoxy)quinoline-3-carbonitrile] as the molecule, how does the IC50 (BCR-ABL1 Q252H) read?
Answer: 0.01 µM

Question: What about the “% Unbound” value [1] of the same molecule?
Answer: 7.73%

Question: And the “stability in hepatocytes, in words” value [2]?
Answer: good stability in human hepatocytes

Question: What about the remaining at 0.5 min ([2]; hepatocytes) of the same molecule?
Answer: 100%

Question: What about the remaining at 0.5 h ([2]; hepatocytes) of the same molecule?
Answer: 63.5%

Question: What about the remaining at 1 h ([2]; hepatocytes) of the same molecule?
Answer: 43.3%

Question: And the remaining at 2 h ([2]; hepatocytes)?
Answer: 20.1%

Question: What about the “efflux (P-gp), in words” value (MDCKII-MDR1 cells; MDCKII-MDR1) of the same molecule?
Answer: reduced efflux ratios

Question: And the “permeability in MDCKII-MDR1 cells, in words” value (MDCKII-MDR1 cells; MDCKII-MDR1)?
Answer: markedly improved permeability
